What was measured:
phosphorylated elF4E = conditions: cell culture cells transfected with MNK2 (MNK2a or MNK2b) or MNK1; cited from earlier work
MNK1a = MNK1a (Homo sapiens, UniProt Q9BUB5); assay: MNK1 in vitro kinase assay (assay 2), Z'-LYTE; format: biochemical; conditions: for inhibition at 1 µM: compound concentration of 1 μM; for IC50: pre-activated GST-MNK1a
Outline: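 Pre-activated GST-MNK1a (13.5-54 ng) with 2 μM Ser/Thr 07 FRET peptide in 50 mM HEPES pH 7.5, 10 mM MgCl2, 2 mM MnCl2, 1 mM EGTA, 1 mM DTT, 1% DMSO; 1 h kinase then 1 h development at room temperature. Coumarin/fluorescein emission ratio gives % phosphorylation; sigmoidal dose-response fit.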

MNK2a = biological target: T1, MNK2a (Homo sapiens, UniProt Q9HBH9); assay: MNK2a in vitro kinase assay (assay 1), ADP-Glo; format: biochemical; conditions: preactivated GST-MNK2a, 20 μM ATP, read-out: MNK2 IC50
T1 construct: made in house
Outline: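 Preactivated GST-MNK2a (10 nM) with eIF4E peptide (25 μM) and ATP (20 μM) in HEPES/DTT/MgCl2 buffer, 90 min at room temperature, final DMSO <3%. ADP formed read by ADP-Glo luminescence and normalised to vehicle and 20 μM reference-inhibitor controls; IC50 from dose-response curves.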

T1 sequence (Q9HBH9 whole entry): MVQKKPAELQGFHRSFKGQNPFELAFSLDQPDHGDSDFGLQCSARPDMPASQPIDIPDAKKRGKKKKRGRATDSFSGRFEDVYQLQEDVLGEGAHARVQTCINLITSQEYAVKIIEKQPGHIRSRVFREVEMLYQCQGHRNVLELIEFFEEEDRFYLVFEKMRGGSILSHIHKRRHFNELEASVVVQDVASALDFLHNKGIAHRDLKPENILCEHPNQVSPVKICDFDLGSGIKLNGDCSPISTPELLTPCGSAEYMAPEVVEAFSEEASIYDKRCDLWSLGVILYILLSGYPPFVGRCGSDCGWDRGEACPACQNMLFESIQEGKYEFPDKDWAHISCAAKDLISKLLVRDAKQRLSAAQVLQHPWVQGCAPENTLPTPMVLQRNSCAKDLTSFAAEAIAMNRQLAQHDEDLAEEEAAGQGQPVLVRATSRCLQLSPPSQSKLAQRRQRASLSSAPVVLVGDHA
Chain of MNK1a (Q9BUB5 1-424 isoform Q9BUB5-2): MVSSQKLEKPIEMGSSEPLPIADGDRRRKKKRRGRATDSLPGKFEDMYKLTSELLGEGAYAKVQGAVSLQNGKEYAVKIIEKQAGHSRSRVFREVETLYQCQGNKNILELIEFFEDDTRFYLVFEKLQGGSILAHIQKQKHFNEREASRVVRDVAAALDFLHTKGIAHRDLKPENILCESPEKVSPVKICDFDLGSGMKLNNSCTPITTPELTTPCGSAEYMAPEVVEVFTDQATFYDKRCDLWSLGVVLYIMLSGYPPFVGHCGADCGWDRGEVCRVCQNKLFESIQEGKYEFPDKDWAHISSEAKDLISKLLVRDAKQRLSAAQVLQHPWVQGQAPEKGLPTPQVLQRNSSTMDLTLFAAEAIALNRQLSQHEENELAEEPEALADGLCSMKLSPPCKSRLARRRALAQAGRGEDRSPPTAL

Row | Structure (SMILES) | inhibition at 1 µM (MNK1a) [%] | IC50 (MNK2a) [nM] | IC50 (MNK1a) [nM] | reduction of phosphorylated elF4E (phosphorylated elF4E)
1 | Nc1ncnc2n[nH]c(Nc3ccc(F)cc3)c12 [CGP57380] | – | – | – | strong reduction
2 | CS(C)(=O)=Nc1cc(F)c2c(Nc3ccc(F)cc3O[C@@H]3CCN(CCO)C3)ncnc2c1 [Example 6.15] | 82 | 24 | – | –
3 | CS(C)(=O)=Nc1cc(F)c2c(Nc3ccc(F)cc3O[C@@H]3CCN(CC(F)F)C3)ncnc2c1 [Example 6.16] | 90 | 7 | – | –
4 | Cc1cc(N=S(C)(C)=O)cc2ncnc(Nc3ccc(F)cc3O[C@@H]3CCN(CCO)C3)c12 [Example 6.17] | 79 | 23 | – | –
5 | Cc1cc(N=S2(=O)CCCC2)cc2ncnc(Nc3ccc(F)cc3O[C@@H]3CCN(S(C)(=O)=O)C3)c12 [Example 6.18] | 98 | 1 | – | –
6 | Cc1cc(N=S(C)(C)=O)cc2ncnc(Nc3ccc(F)cc3O[C@@H]3CCCN(CCC#N)C3)c12 [Example 6.20] | 93 | 4 | – | –
7 | CO[C@H]1CC[C@H](Oc2cc(F)ccc2Nc2ncnc3cc(N=S4(=O)CCN(C)CC4)cc(C)c23)CC1 [Example 7.1] | 86 | 5 | – | –
8 | CO[C@H]1CC[C@H](Oc2cc(F)ccc2Nc2ncnc3cc(N=S4(=O)CCN(C(C)=O)CC4)cc(C)c23)CC1 [Example 7.2] | 82 | 6 | – | –
9 | CNC(=O)N1CCS(=O)(=Nc2cc(C)c3c(Nc4ccc(F)cc4O[C@H]4CC[C@H](OC)CC4)ncnc3c2)CC1 [Example 7.4] | 88 | 7 | – | –
10 | CO[C@H]1CC[C@H](Oc2cc(F)ccc2Nc2ncnc3cc(N=S4(=O)CCN(C(=O)N(C)C)CC4)cc(C)c23)CC1 [Example 7.5] | 77 | 7 | – | –
11 | Cc1cc(N=S(C)(C)=O)cc2ncnc(Nc3ccc(C#N)cc3OC3CCOCC3)c12 [Example 7.6] | 99 | 6 | – | –

More lines, main results first:

Row | inhibition at 1 µM (MNK1a) [%] | IC50 (MNK2a) [nM] | IC50 (MNK1a) [nM] | Structure (SMILES) | reduction of phosphorylated elF4E (phosphorylated elF4E)
12 | 97 | 2 | – | C=Cc1cc(N=S(C)(C)=O)cc2ncnc(Nc3ccc(F)cc3O[C@H]3CCOC3)c12 [Example 7.7] | –
13 | 96 | 3 | – | CS(C)(=O)=Nc1cc(C#N)c2c(Nc3ccc(F)cc3O[C@H]3CCOC3)ncnc2c1 [Example 7.9] | –
14 | 100 | 2 | – | CSc1cc(N=S(C)(C)=O)cc2ncnc(Nc3ccc(F)cc3O[C@H]3CCOC3)c12 [Example 7.10] | –
15 | 98 | 5 | – | CS(C)(=O)=Nc1cc(SCF)c2c(Nc3ccc(F)cc3O[C@H]3CCOC3)ncnc2c1 [Example 7.11] | –
16 | – | 4 | 87 | Cc1cc(N=S(C)(C)=O)cc2ncnc(Nc3ccc(F)cc3OC3CC3)c12 [Example 7.12] | –
17 | 92 | 10 | – | Cc1cc(N=S(C)(C)=O)cc2ncnc(Nc3ccc(F)cc3O[C@H]3C[C@H](N(C)C)C3)c12 [Example 7.15] | –
18 | – | 1 | 25 | Cc1cc(N=S(C)(C)=O)cc2ncnc(Nc3ccc(F)cc3O[C@@H]3CCC[C@H]3O)c12 [Example 7.16] | –
19 | 96 | 1 | – | Cc1cc(N=S(C)(C)=O)cc2ncnc(Nc3ccc(F)cc3O[C@@H]3CCCC[C@H]3F)c12 [Example 7.17] | –
20 | 93 | 2 | – | Cc1cc(N=S(C)(C)=O)cc2ncnc(Nc3ccc(F)cc3OC3CNOC3)c12 (stereo not drawn) [Example 7.18] | –
